Experimental data from patent US11109593B2, “Isoxazolin-5-one derivative and herbicide containing same as active ingredient” (HOKKO CHEMICAL INDUSTRY CO., LTD., priority 2017, dated 2021).

Assays:
Assay type in all cases: in vivo
[1] = system: Amaranthus viridis; assay: Test Example 3: herbicidal effect test by treatment of dry field farming soil (one day after seeding); conditions: 120 g/10a active ingredient, evaluated 14 days after treatment
Description: (§1) This test was conducted in a double system per one agent solution concentration area, and the herbicidal rates (%) were determined by the following equation (Math. 1) on 14 days after the treatment with the agents. Herbicidal Rate (%)={1-(Average Dry Weight (g) of Plant of Treated Area)/(Average Dry Weight (g) of Plant of Untreated Area)}×100 [Math. 1]
(§2) Herbicidal Effect Test by Treatment of Dry Field Farming Soil
(§3) Pots with a size of 36 cm^2 were filled with a dry field farming soil (alluvium). The soil of the top layer of 1 cm and seeds of weeds, namely southern crabgrass, Echinochloa crus-galli, Chenopodium album and Amaranthus viridis, 20 seeds each, were evenly mixed, and the top layer was gently pressed. Emulsions prepared using the compounds in Table 5 below according to Formulation Example 5 were diluted with water one day after seeding, and the water-diluted agent solutions were sprayed to the soil surfaces at a ratio of 100 liters per 10 ares. The converted amount of the applied active ingredient corresponded to 120 g per 10 ares. The herbicidal effects were evaluated by the same standard as that in Test Example 1 on 14 days after the treatment with the agents. […] The compound numbers in Table 5 are the same as those in Table 1 and Table 2 above.

[2] = system: Chenopodium album; assay: as above; conditions: 120 g/10a active ingredient, evaluated 14 days after treatment
Description: as §1, §2, §3

[3] = system: southern crabgrass; assay: as above; conditions: 120 g/10a active ingredient, evaluated 14 days after treatment
Description: as §1, §2, §3

[4] = system: Echinochloa crus-galli; assay: as above; conditions: 120 g/10a active ingredient, evaluated 14 days after treatment
Description: as §1, §2, §3

[5] = system: Scirpus juncoides; assay: Test Example 1: herbicidal effect test by treatment of rice paddy soil (immediately after seeding)
Outline: (§4)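 Paddy soil in pots with compound fertilizer, puddled; 30 seeds per species sown at 0–1 cm, flooded ~3 cm, greenhouse. Water-diluted emulsions dropped onto water immediately after seeding at 120 g active ingredient per 10 ares, duplicate. Herbicidal rate (%) from plant dry weight versus untreated, 14 days after treatment.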

[6] = system: broad leaf weeds (Lindernia pyxidaria and Monochoria vaginalis); assay: as above
Outline: as §4

[7] = system: Echinochloa crus-galli; assay: as above
Outline: as §4

[8] = system: Scirpus juncoides; assay: Test Example 2: herbicidal effect test by treatment during growing period in paddy rice cultivation (seven days after seeding); conditions: for Herbicidal rate (%) Scirpus juncoides: 120 g/10a active ingredient, assessed 14 days after treatment, dry weight vs untreated area
Outline: (§5)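 Emulsion formulations, diluted in water, applied dropwise to flooded pots (about 3 cm water) 7 days post-seeding at 120 g a.i./10 ares. Weeds sown 30 seeds each, 0–1 cm deep in puddled paddy soil; greenhouse. Readout: % reduction in plant dry weight vs untreated, day 14, duplicates.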

[9] = system: broad leaf weeds (Lindernia pyxidaria and Monochoria vaginalis); assay: as above; conditions: for Herbicidal rate (%) Lindernia pyxidaria / Herbicidal rate (%) Monochoria vaginalis: 120 g/10a active ingredient, assessed 14 days after treatment, dry weight vs untreated area
Outline: as §5

[10] = system: Echinochloa crus-galli; assay: as above; conditions: for Herbicidal rate (%) Echinochloa crus-galli: 120 g/10a active ingredient, assessed 14 days after treatment, dry weight vs untreated area
Outline: as §5

[11] = 120 g/10a active ingredient, 14 days after treatment, dry weight vs untreated area
[12] = Lindernia pyxidaria, 120 g/10a active ingredient, 14 days after treatment, dry weight vs untreated area
[13] = Monochoria vaginalis, 120 g/10a active ingredient, 14 days after treatment, dry weight vs untreated area
[14] = 120 g/10a, rated 14 days after treatment, paddy soil pots
[15] = 120 g/10a active ingredient, dry weight vs untreated area, 14 days after treatment
[16] = Lindernia pyxidaria, 120 g/10a active ingredient, dry weight vs untreated area, 14 days after treatment
[17] = Monochoria vaginalis, 120 g/10a active ingredient, dry weight vs untreated area, 14 days after treatment

SMILES | herbicidal rate, Amaranthus viridis [1] | herbicidal rate, Chenopodium album [2] | herbicidal rate, southern crabgrass [3] | herbicidal rate, Echinochloa crus-galli [4] | Herbicidal rate (%) Scirpus juncoides [5, 11] | Herbicidal rate (%) Lindernia pyxidaria [6, 12] | Herbicidal rate (%) Monochoria vaginalis [6, 13] | Herbicidal rate (%) Echinochloa crus-galli [7, 11] | herbicidal rate, Scirpus juncoides [8, 14] | herbicidal rate, Lindernia pyxidaria ([9]; Lindernia pyxidaria, 120 g/10a, rated 14 days after treatment, paddy soil pots) | herbicidal rate, Monochoria vaginalis ([9]; Monochoria vaginalis, 120 g/10a, rated 14 days after treatment, paddy soil pots) | herbicidal rate, Echinochloa crus-galli [10, 14] | Herbicidal rate (%) Scirpus juncoides [8] | Herbicidal rate (%) Lindernia pyxidaria ([9]; Lindernia pyxidaria) | Herbicidal rate (%) Monochoria vaginalis ([9]; Monochoria vaginalis) | Herbicidal rate (%) Echinochloa crus-galli [10] | Herbicidal rate (%) Scirpus juncoides [5, 15] | Herbicidal rate (%) Lindernia pyxidaria [6, 16] | Herbicidal rate (%) Monochoria vaginalis [6, 17] | Herbicidal rate (%) Echinochloa crus-galli [7, 15]
Cc1c(Cc2ccccc2N(S(=O)(=O)C(F)(F)F)S(=O)(=O)C(F)(F)F)c(=O)on1S(=O)(=O)C(C)C [Compound 1-1064] | 80% | 80% | 60% | 100% | 90% | 90% | 90% | 90% | 90% | 50% | 80% | 70% | – | – | – | – | – | – | – | –
Cc1c(Cc2ccccc2N(S(=O)(=O)C(F)(F)F)S(=O)(=O)C(F)(F)F)c(=O)on1C1CCc2ccccc21 (stereo not drawn) [Compound 1-1049] | 50% | 50% | 80% | 90% | 90% | 90% | 80% | 90% | – | – | – | – | 70% | 60% | 70% | 80% | – | – | – | –
Cc1c(Cc2ccccc2N(S(=O)(=O)C(F)(F)F)S(=O)(=O)C(F)(F)F)c(=O)on1CC1(C)CO1 (stereo not drawn) [Compound 1-1051] | 80% | 60% | 80% | 80% | 100% | 60% | 80% | 80% | – | – | – | – | 90% | 40% | 80% | 90% | – | – | – | –
CCn1oc(=O)c(Cc2ccccc2NS(=O)(=O)C(F)(F)F)c1C [Compound 1-98] | 0% | 0% | 90% | 90% | – | – | – | – | – | – | – | – | 90% | 60% | 60% | 80% | 90% | 100% | 100% | 100%
Cc1c(Cc2ccccc2N(C(=O)c2ccccc2)S(=O)(=O)C(F)(F)F)c(=O)on1C(C)C [Compound 1-472] | 0% | 50% | 70% | 90% | – | – | – | – | – | – | – | – | 90% | 80% | 90% | 90% | 90% | 90% | 60% | 90%
Cc1c(Cc2ccccc2NS(=O)(=O)C(F)(F)F)c(=O)on1CCc1ccccc1 [Compound 1-216] | 40% | 0% | 70% | 60% | – | – | – | – | – | – | – | – | 90% | 100% | 100% | 90% | 100% | 100% | 100% | 90%
